{"source": "patent US8992892B2", "about": "“Use of 1-(2,4-dihydroxy-phenyl)-3-(3-hydroxy-4-methoxy-phenyl)-propan-1-one” (SYMRISE AG, priority 2010, dated 2015)", "format_in_all_cases": "in vivo", "key": {"[1]": {"assay": "Bitter reduction of a caffeine solution, rated by a group of experts", "description": "In order to quantify the decrease (i.e. the masking or reduction) in bitter impression in a specimen, the bitterness of a 500 ppm caffeinated solution was compared by a group of experts in each case with a specimen containing 500 ppm caffeine and also various concentrations of deoxy hesperetin dihydrochalcone (I) (rating: 1 [not bitter] to 10 [extremely bitter]).\nFor the assessment, i.e. calculation of the reduction (in %) of the bitter impression in each case the average values of the assessments of the group of experts for the caffeinated solution and the specimen to be compared containing caffeine and a substance to be assessed were used. 2,4-dihydroxybenzoic acid (2,4-DHB) was used here for comparison (reference) in accordance with U.S. Pat. No. 5,643,941."}, "[2]": {"assay": "Intensification of the sweet impression of a sugar solution, rated by a group of experts", "design": "key to Sweet impression (1-10) Specimen (Sucrose + (I)) / Sweet impression (1-10) Specimen (sucrose + substance): 1 = not sweet, 10 = extremely sweet", "description": "In order to quantify the intensification of the sweet impression, in each case the sweetness of a 5% sucrose solution was compared by a group of experts with a specimen containing 5% sucrose and 10 ppm, 25 ppm, 50 ppm or 75 ppm of the deoxy hesperetin dihydrochalcone (I) to be used according to the invention (rating: 1 [not sweet] to 10 [extremely sweet]).\nFor the assessment, i.e. calculation of the intensification (in %) of the sweet impression in each case the average values of the assessments of the group of experts for the sucrose solution and the specimen for comparison containing sucrose and deoxy hesperetin dihydrochalcone (I) were used.\nIn order to quantify the intensification of the sweetness impression, in each case the sweetness of a 5% sucrose solution was compared by a group of experts with a specimen containing 5% sucrose and 30 ppm or 50 ppm of a deoxy dihydrochalcone ((rating: 1 [not sweet] to 10 [extremely sweet])).\nFor the assessment, i.e. calculation of the intensification (in %) of the sweet impression in each case the average values of the assessments of the group of experts for the sucrose solution and the specimen containing sucrose and deoxy dihydrochalcone for comparison were used."}, "[3]": {"assay": "Bitter reduction of a naringin solution, rated by a group of experts", "details": "100 ppm naringin + 50 ppm (I)", "description": "(§1) In order to quantify the decrease (i.e. the masking or reduction) in the bitter impression in a specimen, the bitterness of a solution containing either 100 ppm naringin or 250 ppm salicin or 500 ppm epigallocatechin gallate and 75 ppm ascorbic acid was compared by a group of experts in each case with a specimen containing either 100 ppm naringin or 250 ppm salicin or 500 ppm epigallocatechin gallate and 75 ppm ascorbic acid and additionally 50 ppm deoxy hesperetin dihydrochalcone (I) (rating: 1 [not bitter] to 10 [extremely bitter]).\n(§2) For the assessment, i.e. calculation of the reduction (in %) of the bitter impression in each case the average values of the assessments of the group of experts for the respective bitter substance solution and the bitter substance solution also containing 50 ppm deoxy hesperetin dihydrochalcone (I) were used."}, "[4]": {"assay": "Sucrose equivalence in a 5% sucrose solution with (I), panelists", "details": "for Sucrose equivalence in a 5% sucrose solution with (I), Calculation (5 + x) %: purely additive expected value; for synergy or synergistic additional effect: determined vs theoretically expected value", "description": "(§3) The panelists were asked to test each solution of the compound (I) in water against the sucrose series and to rate it according is degree of sweetness (sucrose equivalence). From the results produced by the panelists it was possible to determine the inherent sweetness of the deoxy hesperetin dihydrochalcone (I) for the above-mentioned concentrations. Apart from the sucrose equivalence of the solutions of the compound (I) in water (i.e. without sucrose) the sucrose equivalence in a 5% sucrose solution was also determined with a corresponding quantity of compound (I).\nIn all the cases tested a synergistic intensification in sweetness was found when an in itself not sweet concentration of deoxy hesperetin dihydrochalcone (I) was added. So it could in theory be expected that a 5% sucrose solution (i.e. a sucrose solution which sensorially by definition corresponds to 5% sucrose equivalents), containing 10 ppm, 25 ppm, 50 ppm or 75 ppm deoxy hesperetin dihydrochalcone (I), through a purely additive effect of the inherent sweetness of deoxy hesperetin dihydrochalcone (I) (see the sucrose equivalence determined in water) results in a sweetness of approximately 5.13%, 5.33%, 5.58% and again 5.58% sucrose equivalents. […] This corresponds in view of the purely theoretically expected values to a synergy or a synergistic additional effect of approximately 25%, 29%, 47% or 27%. It is noticeable that at the maximum tested concentration of 75 ppm—as might be expected—neither the maximum absolute nor the maximum synergistic intensification was measured."}, "[5]": {"assay": "Bitter reduction of a salicin solution, rated by a group of experts", "details": "250 ppm salicin + 50 ppm (I)", "description": "as §1, §2"}, "[6]": {"assay": "Inherent sweetness in water against a sucrose concentration series (sucrose equivalence), panelists", "description": "as §3"}, "[7]": {"assay": "Bitter reduction of an epigallocatechin gallate solution, rated by a group of experts", "details": "500 ppm epigallocatechin gallate + 75 ppm ascorbic acid + 50 ppm (I)", "description": "as §1, §2"}, "[8]": {"assay": "Sucrose equivalence in a 5% sucrose solution with (I), panelists", "details": "0.0100 % by weight (I); purely additive expected value"}, "[9]": {"details": "100 ppm substance + 500 ppm caffeine vs caffeinated solution"}, "[10]": {"details": "100 ppm substance + 500 ppm caffeine, rating 1 [not bitter] to 10 [extremely bitter]"}, "[11]": {"details": "Application example 4: 50 ppm deoxy dihydrochalcone + 5% sucrose vs sucrose solution"}, "[12]": {"details": "Application example 4: 50 ppm deoxy dihydrochalcone + 5% sucrose, rating 1-10"}}}
{"smiles": "O=C(O)c1ccc(O)cc1O", "note": "[2,4-DHB, 2,4-dihydroxybenzoic acid, reference compound]", "values": [{"measurement": "Reduction in bitter impression", "setting": "[1]; [9]", "value": 3, "unit": "%"}, {"measurement": "Bitter impression (1-10) Specimen (Caffeine + substance)", "setting": "[1]; [10]", "value": "5.0 ± 1.0"}]}
{"smiles": "COc1cc(CCC(=O)c2ccc(O)cc2O)ccc1O", "note": "[2′,4,4′-trihydroxy-3-methoxy dihydrochalcone, reference compound]", "values": [{"measurement": "Intensification of the sweet effect", "setting": "[2]; [11]", "value": 8, "unit": "%"}, {"measurement": "Sweet impression (1-10) Specimen (sucrose + substance)", "setting": "[2]; [12]", "value": "5.6 ± 1.4"}]}
{"smiles": "O=C(CCc1ccc(O)cc1)c1ccc(O)cc1O", "note": "[davidigenin (1), davidigenin, reference compound]", "values": [{"measurement": "Intensification of the sweet effect", "setting": "[2]; Application example 4: 30 ppm deoxy dihydrochalcone + 5% sucrose vs sucrose solution", "value": 2, "unit": "%"}, {"measurement": "Sweet impression (1-10) Specimen (sucrose + substance)", "setting": "[2]; Application example 4: 30 ppm deoxy dihydrochalcone + 5% sucrose, rating 1-10", "value": "5.7 ± 1.4"}]}
{"smiles": "COc1ccc(CCC(=O)c2ccc(O)cc2O)cc1O", "note": "[deoxy hesperetin dihydrochalcone (I), 1-(2,4-dihydroxy-phenyl)-3-(3-hydroxy-4-methoxy-phenyl)-propan-1-one]", "values": [{"measurement": "Reduction in bitter impression", "setting": "[3]", "value": 7, "unit": "%"}, {"measurement": "Bitter impression (1-10) Bitter substance + (I)", "setting": "[3]; rating 1-10", "value": "6.4 ± 2.4"}, {"measurement": "Sucrose equivalence in a 5% sucrose solution with (I), Determination", "setting": "[4]; 0.0010 % by weight (10 ppm) (I) in 5% sucrose", "value": 6.4, "unit": "%"}, {"measurement": "Sucrose equivalence in a 5% sucrose solution with (I), Determination", "setting": "[4]; 0.0025 % by weight (25 ppm) (I) in 5% sucrose", "value": 6.9, "unit": "%"}, {"measurement": "Sucrose equivalence in a 5% sucrose solution with (I), Calculation (5 + x) %", "setting": "[4]; 0.0025 % by weight (25 ppm) (I)", "value": 5.33, "unit": "%"}, {"measurement": "Sucrose equivalence in a 5% sucrose solution with (I), Determination", "setting": "[4]; 0.0050 % by weight (50 ppm) (I) in 5% sucrose", "value": 8.2, "unit": "%"}, {"measurement": "Sucrose equivalence in a 5% sucrose solution with (I), Calculation (5 + x) %", "setting": "[4]; 0.0050 % by weight (50 ppm) (I)", "value": 5.58, "unit": "%"}, {"measurement": "Sucrose equivalence in a 5% sucrose solution with (I), Determination", "setting": "[4]; 0.0075 % by weight (75 ppm) (I) in 5% sucrose", "value": 7.1, "unit": "%"}, {"measurement": "Sucrose equivalence in a 5% sucrose solution with (I), Calculation (5 + x) %", "setting": "[4]; 0.0075 % by weight (75 ppm) (I)", "value": 5.58, "unit": "%"}, {"measurement": "synergy or synergistic additional effect", "setting": "[4]; 10 ppm (I) in 5% sucrose", "value": "approximately 25%"}, {"measurement": "synergy or synergistic additional effect", "setting": "[4]; 25 ppm (I) in 5% sucrose", "value": "~29", "unit": "%"}, {"measurement": "synergy or synergistic additional effect", "setting": "[4]; 50 ppm (I) in 5% sucrose", "value": "~47", "unit": "%"}, {"measurement": "synergy or synergistic additional effect", "setting": "[4]; 75 ppm (I) in 5% sucrose", "value": "~27", "unit": "%"}, {"measurement": "Reduction in bitter impression", "setting": "[1]; 10 ppm substance + 500 ppm caffeine vs caffeinated solution", "value": 2, "unit": "%"}, {"measurement": "Bitter impression (1-10) Specimen (Caffeine + substance)", "setting": "[1]; 10 ppm substance + 500 ppm caffeine, rating 1-10", "value": "4.8 ± 1.6"}, {"measurement": "Reduction in bitter impression", "setting": "[1]; 25 ppm substance + 500 ppm caffeine vs caffeinated solution", "value": 26, "unit": "%"}, {"measurement": "Bitter impression (1-10) Specimen (Caffeine + substance)", "setting": "[1]; 25 ppm substance + 500 ppm caffeine, rating 1-10", "value": "3.8 ± 1.5"}, {"measurement": "Reduction in bitter impression", "setting": "[1]; 50 ppm substance + 500 ppm caffeine vs caffeinated solution", "value": 11, "unit": "%"}, {"measurement": "Bitter impression (1-10) Specimen (Caffeine + substance)", "setting": "[1]; 50 ppm substance + 500 ppm caffeine, rating 1-10", "value": "3.7 ± 1.6"}, {"measurement": "Reduction in bitter impression", "setting": "[1]; [9]", "value": 3, "unit": "%"}, {"measurement": "Bitter impression (1-10) Specimen (Caffeine + substance)", "setting": "[1]; [10]", "value": "4.9 ± 1.9"}, {"measurement": "Reduction in bitter impression", "setting": "[5]", "value": 15, "unit": "%"}, {"measurement": "Bitter impression (1-10) Bitter substance + (I)", "setting": "[5]; rating 1-10", "value": "6.5 ± 2.2"}, {"measurement": "Determination of the sucrose equivalence in water (without sucrose)", "setting": "[6]; 0.0010 % by weight (I) in water", "value": 0.13, "unit": "%"}, {"measurement": "Determination of the sucrose equivalence in water (without sucrose)", "setting": "[6]; 0.0025 % by weight (I) in water", "value": 0.33, "unit": "%"}, {"measurement": "Determination of the sucrose equivalence in water (without sucrose)", "setting": "[6]; 0.0050 % by weight (I) in water", "value": 0.58, "unit": "%"}, {"measurement": "Determination of the sucrose equivalence in water (without sucrose)", "setting": "[6]; 0.0075 % by weight (I) in water", "value": 0.58, "unit": "%"}, {"measurement": "Determination of the sucrose equivalence in water (without sucrose)", "setting": "[6]; 0.0100 % by weight (I) in water", "value": 0.79, "unit": "%"}, {"measurement": "own sweetness of the compound", "setting": "[6]; own investigations", "value": "not in itself particularly sweet"}, {"measurement": "Reduction in bitter impression", "setting": "[7]", "value": 10, "unit": "%"}, {"measurement": "Bitter impression (1-10) Bitter substance + (I)", "setting": "[7]; rating 1-10", "value": "6.1 ± 2.9"}, {"measurement": "Sucrose equivalence in a 5% sucrose solution with (I), Calculation (5 + x) %", "setting": "[8]", "value": 5.79, "unit": "%"}, {"measurement": "Intensification of the sweet impression", "setting": "[2]; 10 ppm (I) + 5% sucrose vs sucrose solution", "value": 21, "unit": "%"}, {"measurement": "Sweet impression (1-10) Specimen (Sucrose + (I))", "setting": "[2]; 10 ppm (I) + 5% sucrose, rating 1 [not sweet] to 10 [extremely sweet]", "value": "6.4 ± 1.6"}, {"measurement": "Intensification of the sweet impression", "setting": "[2]; 25 ppm (I) + 5% sucrose vs sucrose solution", "value": 42, "unit": "%"}, {"measurement": "Sweet impression (1-10) Specimen (Sucrose + (I))", "setting": "[2]; 25 ppm (I) + 5% sucrose, rating 1-10", "value": "6.9 ± 1.9"}, {"measurement": "Intensification of the sweet impression", "setting": "[2]; 50 ppm (I) + 5% sucrose vs sucrose solution", "value": 48, "unit": "%"}, {"measurement": "Sweet impression (1-10) Specimen (Sucrose + (I))", "setting": "[2]; 50 ppm (I) + 5% sucrose, rating 1-10", "value": "8.2 ± 0.9"}, {"measurement": "Intensification of the sweet impression", "setting": "[2]; 75 ppm (I) + 5% sucrose vs sucrose solution", "value": 21, "unit": "%"}, {"measurement": "Sweet impression (1-10) Specimen (Sucrose + (I))", "setting": "[2]; 75 ppm (I) + 5% sucrose, rating 1-10", "value": "7.1 ± 1.7"}, {"measurement": "Intensification of the sweet effect", "setting": "[2]; [11]", "value": 48, "unit": "%"}, {"measurement": "Sweet impression (1-10) Specimen (sucrose + substance)", "setting": "[2]; [12]", "value": "8.2 ± 0.9"}, {"measurement": "sweetness-intensifying effect", "setting": "[2]; own investigations", "value": "strong, sweetness-intensifying effect"}, {"measurement": "sweetness intensifying effect compared with structurally related substances (1)-(3)", "setting": "[2]; see Application example 4", "value": "clearly the most powerful compound"}]}
{"smiles": "COc1ccc(CCC(=O)c2ccc(O)cc2O)cc1", "note": "[reference compound]", "values": [{"measurement": "Intensification of the sweet effect", "setting": "[2]; [11]", "value": 12, "unit": "%"}, {"measurement": "Sweet impression (1-10) Specimen (sucrose + substance)", "setting": "[2]; [12]", "value": "6.1 ± 1.8"}]}
